Assay results reported in ChEMBL document CHEMBL1142923, “Novel chiral isoxazole derivatives: synthesis and pharmacological characterization at human beta-adrenergic receptor subtypes” (Bioorg Med Chem, 2007).

Key:
[1] = biological target: T1, Beta-3 adrenergic receptor (Homo sapiens, UniProt P13945); experiment: Efficacy at human adrenergic beta 3 receptor transfected in CHO cells assessed as stimulation of adenylyl cyclase at 100 uM relative to isoproterenol; type: functional, cell-based
Target sequence in this assay (P13945 whole entry, looked up): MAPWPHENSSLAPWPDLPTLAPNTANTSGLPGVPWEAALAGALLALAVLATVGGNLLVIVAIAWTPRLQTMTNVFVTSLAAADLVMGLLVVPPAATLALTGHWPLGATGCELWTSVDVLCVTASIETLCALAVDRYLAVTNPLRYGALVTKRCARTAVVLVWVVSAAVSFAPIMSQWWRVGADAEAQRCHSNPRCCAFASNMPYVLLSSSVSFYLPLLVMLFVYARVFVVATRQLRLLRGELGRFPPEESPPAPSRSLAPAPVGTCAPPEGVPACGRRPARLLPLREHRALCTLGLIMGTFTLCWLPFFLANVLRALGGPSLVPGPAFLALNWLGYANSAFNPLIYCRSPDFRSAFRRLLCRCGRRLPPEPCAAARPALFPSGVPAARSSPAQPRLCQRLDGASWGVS

[2] = biological target: Beta-2 adrenergic receptor (Homo sapiens, UniProt P07550); experiment: Displacement of [125I]CYP from human adrenergic beta 2 receptor transfected in CHO cells in presence of 100 uM GTP; type: cell-based
Chain of Beta-2 adrenergic receptor (P07550 whole entry): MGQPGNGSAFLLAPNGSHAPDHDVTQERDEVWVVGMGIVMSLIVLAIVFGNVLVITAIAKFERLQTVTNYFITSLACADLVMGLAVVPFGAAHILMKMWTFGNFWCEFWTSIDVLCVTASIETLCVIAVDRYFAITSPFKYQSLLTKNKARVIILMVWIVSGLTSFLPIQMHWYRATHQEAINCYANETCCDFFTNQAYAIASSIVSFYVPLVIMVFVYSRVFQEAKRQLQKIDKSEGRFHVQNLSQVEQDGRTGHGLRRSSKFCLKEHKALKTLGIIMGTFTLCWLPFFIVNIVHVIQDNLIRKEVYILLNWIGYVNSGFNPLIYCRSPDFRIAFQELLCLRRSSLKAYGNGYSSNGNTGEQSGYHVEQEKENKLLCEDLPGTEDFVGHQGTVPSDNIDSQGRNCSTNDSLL

[3] = biological target: Beta-1 adrenergic receptor (Homo sapiens, UniProt P08588); experiment: Displacement of [125I]CYP from human adrenergic beta 1 receptor transfected in CHO cells in presence of 100 uM GTP; type: cell-based
Chain of Beta-1 adrenergic receptor (P08588 whole entry): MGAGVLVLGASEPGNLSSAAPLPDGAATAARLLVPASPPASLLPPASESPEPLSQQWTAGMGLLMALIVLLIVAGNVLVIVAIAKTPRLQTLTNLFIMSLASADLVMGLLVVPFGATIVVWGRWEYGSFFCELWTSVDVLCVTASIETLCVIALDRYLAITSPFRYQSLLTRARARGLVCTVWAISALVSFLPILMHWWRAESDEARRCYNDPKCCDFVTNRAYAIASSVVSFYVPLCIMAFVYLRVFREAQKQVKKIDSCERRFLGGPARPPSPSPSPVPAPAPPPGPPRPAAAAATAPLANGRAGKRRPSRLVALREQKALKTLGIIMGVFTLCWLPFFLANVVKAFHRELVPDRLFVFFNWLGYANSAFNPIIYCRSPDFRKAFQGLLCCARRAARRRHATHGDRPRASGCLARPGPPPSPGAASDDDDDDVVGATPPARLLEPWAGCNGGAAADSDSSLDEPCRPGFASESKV

[4] = biological target: T1, Beta-3 adrenergic receptor; experiment: Displacement of [125I]CYP from human adrenergic beta 3 receptor transfected in CHO cells in presence of 100 uM GTP; type: cell-based
Target sequence in this assay (P13945 whole entry): as the sequence (P13945 whole entry, looked up) above

SMILES | Efficacy [1] [%] | Ki [2] [nM] | Ki [3] [nM] | Ki [4] [nM]
CCCCOc1ccc(C[C@@H](C)NC[C@@H](O)c2cc(Br)no2)cc1 | 31 | 458 | 2160 | 10700
C[C@H](Cc1ccc(OCC(=O)O)cc1)NC[C@H](O)c1cccc(Cl)c1 (racemic) |  | 2850 |  | 
CCCCOc1ccc(C[C@@H](C)NC[C@H](O)c2cc(Br)no2)cc1 | 51 | 15.5 | 66.7 | 2490
CCOC(=O)COc1ccc(C[C@@H](C)NC[C@H](O)c2cc(Br)no2)cc1 | 56 | 2.82 | 23.2 | 10100
CC(C)(C)NCC(O)c1cc(NS(C)(=O)=O)no1 (racemic) |  | > 100000 | > 100000 | > 100000
C[C@H](Cc1ccc(OCC(=O)O)cc1)NC[C@H](O)c1cc(Br)no1 | 50 | 13.9 | 61.1 | 22000
CCOC(=O)COc1ccc(C[C@@H](C)NC[C@@H](O)c2cc(Br)no2)cc1 | 39 | 81.4 | 1110 | 21800
C[C@H](Cc1ccc(OCC(=O)O)cc1)NC[C@@H](O)c1cc(Br)no1 | 34 | 501 | 6460 | > 50000
